Key:
Assay type in all cases: in vivo
[1] = tested on: Spodoptera littoralis (Egyptian Cotton Leaf Worm); experiment: Example B9: Activity against Spodoptera littoralis, lettuce grown on treated agar; settings: 144 h, test rate of 12.5 ppm, compound mixed with agar, taken up by lettuce roots, 6 days after infestation, read-out: effect in at least one of the three categories (mortality, anti-feedancy, or growth inhibition)
Excerpt: Test compounds were applied by pipette from 10′000 ppm DMSO stock solutions into 24-well plates and mixed with agar. Lettuce seeds were placed on the agar and the multi well plate was closed by another plate which contains also agar. After 7 days the roots have absorbed the compound and the lettuce has grown into the lid plate. The lettuce leafs were now cut off into the lid plate. Spodoptera eggs were pipetted through a plastic stencil on a humid gel blotting paper and the plate closed with it. The samples were assessed for mortality, anti-feedant effect and growth inhibition in comparison to untreated samples 6 days after infestation.

[2] = tested on: Spodoptera littoralis (Egyptian Cotton Leaf Worm); experiment: Example B8: Activity against Spodoptera littoralis, cotton leaf discs sprayed; settings: foliar, 72 h, application rate of 200 ppm, L1 larvae, 3 days after infestation, read-out: control (at least one of mortality, anti-feedant effect, and growth inhibition)
Experimental: Cotton leaf discs were placed on agar in 24-well microtiter plates and sprayed with aqueous test solutions prepared from 10′000 ppm DMSO stock solutions. After drying the leaf discs were infested with five L1 larvae. The samples were assessed for mortality, anti-feedant effect, and growth inhibition in comparison to untreated samples 3 days after infestation. Control of Spodoptera littoralis by a test sample is when at least one of mortality, anti-feedant effect, and growth inhibition is higher than the untreated sample.

[3] = tested on: Aedes aegypti (Yellow Fever Mosquito); experiment: whole plant or invertebrate; settings: 48 h, test rate of 5 ppm, L2 larvae, incubation period of 2 days, read-out: effect in at least one of the two categories (mortality or growth inhibition)
Experimental: 10 to 15 Aedes larvae (L2) together with a nutrition mixture were placed in 96-well microtiter plates. Test compounds were pipetted into the wells. After an incubation period of 2 days insects were assessed for mortality and growth inhibition.

[4] = tested on: Bemisia tabaci (Cotton White Fly); experiment: Example B1: Activity against Bemisia tabaci, cotton leaf discs sprayed; settings: foliar, 144 h, application rate of 200 ppm, adult white flies, 6 days after incubation
Experimental: Cotton leaf discs were placed on agar in 24-well microtiter plates and sprayed with aqueous test solutions prepared from 10′000 ppm DMSO stock solutions. After drying the leaf discs were infested with adult white flies. The samples were checked for mortality 6 days after incubation.

[5] = tested on: Plutella xylostella (Diamond Back Moth); experiment: Example B7: Activity against Plutella xylostella, artificial diet; settings: 120 h, application rate of 200 ppm, L2 larvae, 5 days after infestation, read-out: effect in at least one of the two categories (mortality or growth inhibition)
Experimental: 24-well microtiter plates with artificial diet were treated with aqueous test solutions prepared from 10′000 ppm DMSO stock solutions by pipetting. After drying, the plates were infested with L2 larvae (10 to 15 per well). The samples were assessed for mortality and growth inhibition in comparison to untreated samples 5 days after infestation.

[6] = tested on: Mysus persicae (Green Peach Aphid); experiment: Example B6: Activity against Mysus persicae, sucrose solution under Parafilm; settings: Myzus persicae, 120 h; test rate of 12 ppm; mixed with sucrose solution; 5 days after infestation
Experimental: Test compounds from 10′000 ppm DMSO stock solutions were applied by pipette into 24-well microtiter plates and mixed with sucrose solution. The plates were closed with a stretched Parafilm. A plastic stencil with 24 holes was placed onto the plate and infested pea seedlings were placed directly on the Parafilm. The infested plate was closed with a gel blotting paper and another plastic stencil and then turned upside down. The samples were assessed for mortality 5 days after infestation.

[7] = tested on: Diabrotica balteata (Corn Root Worm); experiment: Example B2: Activity against Diabrotica balteata, maize sprouts sprayed; settings: 96 h, application rate of 200 ppm, L2 larvae, 4 days after infestation
Experimental: Maize sprouts, placed on an agar layer in 24-well microtiter plates were treated with aqueous test solutions prepared from 10′000 ppm DMSO stock solutions by spraying. After drying, the plates were infested with L2 larvae (6 to 10 per well). The samples were assessed for mortality 4 days after infestation.

[8] = tested on: Euschistus heros (Neotropical Brown Stink Bug); experiment: Example B3: Activity against Euschistus heros, soybean leaf sprayed; settings: 120 h, application rate of 200 ppm, N-2 nymphs, 5 days after infestation, read-out: effect in at least one of the two categories (mortality or growth inhibition)
Experimental: Soybean leaf on agar in 24-well microtiter plates were sprayed with aqueous test solutions prepared from 10′000 ppm DMSO stock solutions. After drying the leaf were infested with N-2 nymphs. The samples were assessed for growth inhibition in comparison to untreated samples 5 days after infestation.

[9] = tested on: Mysus persicae (Green Peach Aphid); experiment: Example B4: Activity against Mysus persicae, sunflower leaf discs sprayed; settings: Myzus persicae, foliar, 144 h, application rate of 200 ppm, aphid population of mixed ages, 6 days after infestation
Experimental: (§1) Sunflower leaf discs were placed on agar in a 24-well microtiter plate and sprayed with aqueous test solutions prepared from 10′000 ppm DMSO stock solutions. After drying, the leaf discs were infested with an aphid population of mixed ages. The samples were assessed for mortality 6 days after infestation.

[10] = tested on: Tetranychus urticae (Two-Spotted Spider Mite); experiment: Example B10: Activity against Tetranychus urticae, feeding/contact activity; settings: 192 h
Experimental: Bean leaf discs on agar in 24-well microtiter plates were sprayed with aqueous test solutions prepared from 10′000 ppm DMSO stock solutions. After drying the leaf discs were infested with a mite population of mixed ages. The samples were assessed for mortality on mixed population (mobile stages) 8 days after infestation.

[11] = tested on: Mysus persicae (Green Peach Aphid); experiment: Example B5: Activity against Mysus persicae, roots of pea seedlings in test solutions; settings: Myzus persicae, 144 h, test rate of 24 ppm, 6 days
Experimental: Roots of pea seedlings infested with an aphid population of mixed ages were placed directly in the aqueous test solutions prepared from 10′000 DMSO stock solutions. The samples were assessed for mortality 6 days after placing seedlings in test solutions.

[12] = tested on: Thrips tabaci (Onion Thrips); experiment: Example B11: Activity against Thrips tabaci, feeding/contact activity; settings: 144 h, application rate of 200 ppm, thrips population of mixed ages, 6 days after infestation
Experimental: as §1, with “in” for “in a”, “plates” for “plate”, “drying” for “drying,”, “a thrips” for “an aphid”

CCSc1ccccc1-n1cc2cnc(C(F)(F)F)cc2n1 [Compound P1, 2-(2-ethylsulfanylphenyl)-6-(trifluoromethyl)pyrazolo[4,3-c]pyridine]
≥ 80%: percent control (mortality, anti-feedancy or growth inhibition) at 12.5 ppm [1] | mortality at 200 ppm [2] | percent effect (mortality or growth inhibition) at 5 ppm [3] | mortality at 200 ppm [4] | percent effect (mortality or growth inhibition) at 200 ppm [5] | mortality at 12 ppm [6] | mortality at 200 ppm [7] | percent effect (mortality or growth inhibition) at 200 ppm [8] | mortality at 200 ppm [9] | mortality at 200 ppm [10]

CCS(=O)(=O)c1ccccc1-n1cc2cnc(C(F)(F)F)cc2n1 [Compound P2, 2-(2-ethylsulfonylphenyl)-6-(trifluoromethyl)pyrazolo[4,3-c]pyridine]
≥ 80%: mortality at 200 ppm [2] | mortality at 200 ppm [4] | percent effect (mortality or growth inhibition) at 200 ppm [5] | mortality at 200 ppm [7] | mortality at 24 ppm [11] | mortality at 200 ppm [9]

CCSc1cccnc1-n1cc2cnc(C(F)(F)F)cc2n1 [Compound P3, 2-(3-ethylsulfanyl-2-pyridyl)-6-(trifluoromethyl)pyrazolo[4,3-c]pyridine]
≥ 80%: percent control (mortality, anti-feedancy or growth inhibition) at 12.5 ppm [1] | mortality at 200 ppm [2] | percent effect (mortality or growth inhibition) at 200 ppm [5] | mortality at 12 ppm [6] | mortality at 200 ppm [7] | percent effect (mortality or growth inhibition) at 200 ppm [8] | mortality at 200 ppm [9]

CCS(=O)(=O)c1cccnc1-n1cc2cnc(C(F)(F)F)cc2n1 [Compound P4, 2-(3-ethylsulfonyl-2-pyridyl)-6-(trifluoromethyl)pyrazolo[4,3-c]pyridine]
≥ 80%: percent control (mortality, anti-feedancy or growth inhibition) at 12.5 ppm [1] | mortality at 200 ppm [2] | percent effect (mortality or growth inhibition) at 200 ppm [5] | mortality at 200 ppm [7] | percent effect (mortality or growth inhibition) at 200 ppm [8] | mortality at 24 ppm [11] | mortality at 200 ppm [9]

CCS(=O)(=O)c1cccnc1-n1cc2cnc(Br)cc2n1 [Compound P6, 6-bromo-2-(3-ethylsulfonyl-2-pyridyl)pyrazolo[4,3-c]pyridine]
≥ 80%: mortality at 200 ppm [7] | mortality at 200 ppm [9]

CCS(=O)(=O)c1cc(C(F)(F)F)cnc1-n1cc2cnc(C(F)(F)F)cc2n1 [Compound P7, 2-[3-ethylsulfonyl-5-(trifluoromethyl)-2-pyridyl]-6-(trifluoromethyl)pyrazolo[4,3-c]pyridine]
≥ 80%: percent control (mortality, anti-feedancy or growth inhibition) at 12.5 ppm [1] | mortality at 200 ppm [2] | percent effect (mortality or growth inhibition) at 5 ppm [3] | percent effect (mortality or growth inhibition) at 200 ppm [5] | mortality at 200 ppm [7] | percent effect (mortality or growth inhibition) at 200 ppm [8] | mortality at 200 ppm [9]

CCS(=O)(=O)c1cc(Br)cnc1-n1cc2cnc(C(F)(F)F)cc2n1 [Compound P8, 2-(5-bromo-3-ethylsulfonyl-2-pyridyl)-6-(trifluoromethyl)pyrazolo[4,3-c]pyridine]
≥ 80%: mortality at 200 ppm [2] | percent effect (mortality or growth inhibition) at 200 ppm [5] | mortality at 200 ppm [7] | percent effect (mortality or growth inhibition) at 200 ppm [8] | mortality at 200 ppm [9]

CCS(=O)(=O)c1cc(C2CC2)cnc1-n1cc2cnc(C(F)(F)F)cc2n1 [Compound P9, 2-(5-cyclopropyl-3-ethylsulfonyl-2-pyridyl)-6-(trifluoromethyl)pyrazolo[4,3-c]pyridine]
≥ 80%: mortality at 200 ppm [2] | mortality at 200 ppm [7]

CCS(=O)(=O)c1cc(-c2ccccc2)cnc1-n1cc2cnc(C(F)(F)F)cc2n1 [Compound P10, 2-(3-ethylsulfonyl-5-phenyl-2-pyridyl)-6-(trifluoromethyl)pyrazolo[4,3-c]pyridine]
≥ 80%: mortality at 200 ppm [12] | mortality at 200 ppm [2] | percent effect (mortality or growth inhibition) at 200 ppm [5] | mortality at 200 ppm [7] | percent effect (mortality or growth inhibition) at 200 ppm [8] | mortality at 200 ppm [9]

CCS(=O)(=O)c1cccnc1-n1cc2nnc(C(F)(F)F)cc2n1 [PP1, 2-(3-ethylsulfonyl-2-pyridyl)-6-(trifluoromethyl)pyrazolo[4,3-c]pyridazine]
≥ 80%: mortality at 200 ppm [2] | percent effect (mortality or growth inhibition) at 200 ppm [5] | mortality at 200 ppm [7] | percent effect (mortality or growth inhibition) at 200 ppm [8] | mortality at 200 ppm [9]

— US9949483B2, “Pesticidally active heterocyclic derivatives with sulphur containing substituents” (Syngenta Participations AG, priority 2014, dated 2018)
